Here are results for four compounds from US20170239351A1, “Therapeutic Combinations of a BTK Inhibitor, a PI3K Inhibitor, a JAK-2 Inhibitor, a PD-1 Inhibitor, and/or a PD-L1 Inhibitor” (Acerta Pharma B.V., priority 2014, published 2017).

Broadly, the EC50 is the midpoint of the concentration-response curve. A high value points to a need for much substance.

One series concerns B cell receptor. The experiment in a line: Whole blood B cell receptor signalling assay (anti-IgD, CD69 on CD19+ B cells). The class given is cell-based. Conditions: 2 h incubation, anti-human IgD 18 h. The method, then: Blood from four healthy donors was incubated for 2 hours with the compounds shown over a concentration range, and then stimulated with anti-human IgD [10 μg/mL] for 18 hours. The mean fluorescent intensity (MFI) of CD69 (and CD86, data not shown) on gated CD19+ B cells was measured by flow cytometry.

In series [1] the test system is KPC derived mouse pancreatic cancer cells. As to the kind of experiment: Orthotopic pancreatic cancer model (KPC-derived cells). The class given is in vivo, C57BL/6 mice. The following applies: 15 mg/kg oral of each drug. As to the method:
Orthotopic pancreatic cancer models in mice are clinically relevant, benefit from tissue site-specific pathology, and allow for study of metastasis. Qiu and Su, Methods Mol. Biol. 2013, 980, 215-223. A cell line derived from KrasG12D; Trp53R172H; Pdx1-Cre (KPC) mice was orthotopically implanted into the head of the pancreas after 35 passages. Based on the mice background from where the cell lines were generated, 1×10^6 cells were injected in C57BL/6 mice. Throughout the experiment, animals were provided with food and water ad libitum and subjected to a 12-h dark/light cycle. Animal studies were performed in accordance with the U.S. Public Health Service “Guidelines for the Care and Use of Laboratory Animals” (IACUC). After euthanization, pancreatic tumors were dissected out, weighed and single cell suspensions were prepared for flow cytometry analysis.
Results of the experiments are shown in FIG. 110, which illustrates tumor growth suppression in the orthotopic pancreatic cancer model. The statistical p-value (presumption against null hypothesis) is shown for each tested single active pharmaceutical ingredient and for the combination against the vehicle.
In this study, KrasG12D;Trp53R172H; Pdx1-Cre (KPC) derived mouse pancreatic cancer cells (10,000 cells) were injected into the pancreases of 24 female mice. After one week of expansion, drug treatment was started in mice developing pancreatic tumors.
Single cell suspensions from tumor samples were prepared as follows. Mouse tumor tissue was collected and stored in PBS/0.1% soybean trypsin inhibitor prior to enzymatic dissociation. […] Following surface staining, samples were acquired on a BD Fortessa and analyzed using FlowJo (Treestar) software.

For series [2], the system named is regulatory T cell (Treg) development. The experiment in a line: Regulatory T cell (Treg) development. The class given is cell-based.
The test system of another series is CD8^+ T cell. As to the kind of experiment: CD8+ T cell viability. In kind it is cell-based.
Series [3] deals with CD8^+ T cell function. As to the kind of experiment: Cytotoxicity assay for CD8+ T cell function. In kind it is cell-based. Conditions: relative to vehicle.
The subject of another series is T helper 17 (Th17) cells. The experiment in a line: Effect on T helper 17 (Th17) cells. In kind it is cell-based.
Series [4] has as its system Raji cells. As to the kind of experiment: Rituximab ADCC assay (51Cr release), healthy donor NK cells. In kind it is cell-based, human. The following applies: 1 μM.
Series [5] deals with CD8^+ T cells. The experiment in a line: CD8+ T cell viability (LIVE/DEAD staining, 4 days). In kind it is cell-based. The method, then:
Total T cells were plated on anti-TCR and anti-CD28 coated wells in the presence of both BTK inhibitors. Neutral culture conditions were used that will not polarize T cells to a helper lineage. The cells are grown for 4 days and are then stained with anti-CD4, anti-CD8 and LIVE/DEAD reagent to determine if the drugs have selective effects on either the CD4^+ or CD8^+ cells. Statistical significance was calculated using the Mann Whitney T-test. […]

The test system of series [6] is human platelet-mediated thrombosis. The arrangement: species or system VWF HA1 mice (human platelets). The following applies: in vivo. The method, then:
[…]. Injury to the vessel wall of arterioles ([…] diameter) was performed using a pulsed nitrogen dye laser (440 nm, Photonic Instruments) applied through a 20× water-immersion Olympus objective (LUMPlanF1, 0.5 numerical aperature (NA)) of a Zeiss Axiotech vario microscope. Human platelet and wall interactions were visualized by fluorescence microscopy using a system equipped with a Yokogawa CSU-22 spinning disk confocal scanner, iXON EM camera, and 488 nm and 561 nm laser lines to detect BCECF-labeled and rhodamine-labeled platelets, respectively (Revolution XD, Andor Technology). The extent of thrombus formation was assessed for 2 minutes after injury and the area (μm^2) of coverage determined (Image IQ, Andor Technology).
. The BTK inhibitor-treated human platelets were fluorescently labeled and infused continuously through a catheter inserted into the femoral artery. Their behavior in response to laser-induced vascular injury was monitored in real time using two-channel confocal intravital microscopy (Furie and Furie, J. Clin. Invest. 2005, 115(12), 2255-62). Upon induction of arteriole injury untreated platelets rapidly formed thrombi with an average thrombus size of […] (mean±s.e.m.), as shown in FIG. 124 and FIG. 125. […]. […]. […]

The next series relates to NK cells. As to the kind of experiment: Antibody-stimulated NK cell degranulation (CD107a), flow cytometry. The class given is cell-based, human. Conditions: DHL-4 target cells. On the technique in general: A flow cytometer gives signals particle by particle.
Another series has as its system CD4^+ T cells. As to the kind of experiment: Th17 and Treg development from CD4+ T cells. In kind it is cell-based. The method, then:
Enriched CD4^+ T cells are plated on 24-well culture dishes that have been precoated 2 hr with 250 μL anti-TCRβ (0.5 μg/mL) plus anti-CD28 (5 μg/mL) at 37° C. in PBS. The cells are then supplemented with media containing BTK inhibitors along with the skewing cytokines as indicated in the following. The Th17 and Treg cultures are grown for 4 days before analysis. The cells are maintained for an additional 3 days with skewing cytokines (Th17; 20 ng/mL IL-6, 0.5 ng/mL TGF-β, 5 μg/mL IL-4, 5 μg/mL IFN-γ and Treg; 0.5 ng/mL TGF-β, 5 μg/mL IL-4, 5 μg/mL IFN-γ) and are supplemented with IL2 as a growth factor.

Series [7] deals with CD8^+ T cells. The experiment in a line: Cytotoxic T cell (CTL) assay. The class given is cell-based. Conditions: 500 nM. The method, then: Without being bound by any theory, CD8^+ T cells have two primary effector functions: (1) produce large amounts of IFN-γ (which activates macrophages), and (2) cytolytic activity. […] The targets were B lymphoblasts from lipopolysaccharide (LPS) treated cultures. The assay was performed by incubating different ratios of effectors:targets for 4 hours.

The test system of series [8] is CD8^+ T cell function. As to the kind of experiment: IFN-γ level measurements for CD8+ T cell function. The class given is cell-based. The following applies: relative to vehicle.
The subject of series [9] is Raji cells. The experiment in a line: Antibody-dependent NK cell-mediated cytotoxicity, chromium release assay, Raji cells. The class given is cell-based. The following applies: 1 μM, rituximab, effector:target 25:1, 4 hours.
For the next series, the system named is human platelets. As to the kind of experiment: GPVI (convulxin-induced) platelet aggregation. In kind it is cell-based. As to the method:
GPVI platelet aggregation was measured for Formula (XVIII) and Formula (XX-A) (ibrutinib). Blood was obtained from untreated humans, and platelets were purified from […] by centrifugation. Cells were resuspended to a final concentration of 350,000/μL in buffer containing 145 mmol/L NaCl, 10 mmol/L HEPES, 0.5 mmol/L Na2HPO4, 5 mmol/L KCl, 2 mmol/L MgCl2, 1 mmol/L CaCl2, and 0.1% glucose, at pH 7.4. Stock solutions of Convulxin (CVX) GPVI were prepared on the day of experimentation and added to platelet suspensions 5 minutes (37° C., 1200 rpm) before the induction of aggregation. Aggregation was assessed with a Chronolog Lumi-Aggregometer (model 540 VS; Chronolog, Havertown, Pa.) and permitted to proceed for 6 minutes after the addition of agonist. The results are reported as maximum percent change in light transmittance from baseline with platelet buffer used as a reference.
In FIG. 129, the results of CVX-induced (250 ng/mL) human platelet aggregation results before and 15 minutes after administration of the BTK inhibitors to 6 healthy individuals are shown.

In the next series the test system is relapsed/refractory CLL. The following applies: cited from earlier work.

In the series on B cell receptor, `C=CC(=O)Nc1cccc(Nc2nc(Nc3ccc(OCCOC)cc3)ncc2F)c1` [CC-292] returned a concentration for a half-maximal effect (EC50) of 121 nM.

On to `C[C@H](Nc1ncnc2[nH]cnc12)c1cc2ccc(F)cc2nc1-c1ccccn1` [Formula (IX), (S)—N-(1-(7-fluoro-2-(pyridin-2-yl)quinolin-3-yl)ethyl)-9H-purin-6-amine, reference compound], for which, in series [1], the “tumor volume versus vehicle” value was “statistically significant reductions in tumor volume”.

As for `C=CC(=O)N1CCC[C@@H](n2nc(-c3ccc(Oc4ccccc4)cc3)c3c(N)ncnc32)C1` [ibrutinib, 1-[(3R)-3-[4-amino-3-(4-phenoxyphenyl)-1H-pyrazolo[3,4-d]pyrimidin-1-yl]piperidin-1-yl]prop-2-en-1-one, reference compound], the “effect on Treg development” value in series [2] is “strongly increases Treg development”. For the same compound, the “effect on CD8+ T cell viability” value in the series with CD8^+ T cell is “strongly affects CD8^+ T cell viability at higher doses”. In addition, the “CD8+ T cell function as measured by % cytotoxicity” value with CD8^+ T cell function [3] is reported as “affects CD8^+ T cell function”. In the series on T helper 17 (Th17) cells, the “effect on Th17 cells” value was “strongly inhibits Th17 cells”. Further, the “effect on rituximab-mediated ADCC” value in the series with Raji cells [4] is listed as “strongly inhibited”. For the same compound, in the series with CD8^+ T cells [5], the “effect on CD8^+ T cell viability” value was “strong, negative effect on CD8^+ T cell viability”. Further, the “effect on thrombus formation” value in series [6] is reported as “interfere with thrombus formation”. The “inhibition of rituximab-stimulated NK cell degranulation” value with NK cells is listed as roughly 50%. Moreover, the “effect on Th17 and Treg development” value with CD4^+ T cells was “profound inhibition of Th17 cells and an increase in Treg development”. For the same compound, in the series with CD8^+ T cells [7], the “CD8^+ T cell function as % cytotoxicity” value is listed as “affects CD8^+ T cell function” and the “CD8^+ T cell function as IFN-γ levels” value was “significant loss of function”. For the same compound, the “CD8+ T cell function as measured by IFN-γ level” value in the series on CD8^+ T cell function [8] is “affects CD8^+ T cell function”. In the series on Raji cells [9], the “antibody-dependent NK cell-mediated cytotoxicity (percent lysis of tumor cells)” value is listed as “antagonizes antibody-dependent NK cell-mediated cytotoxicity”. In the series with human platelets, the GPVI platelet aggregation result is on record as “significantly inhibits GPVI platelet aggregation”.

For the compound “obinutuzumab: type II glycoengineered CD20 monoclonal antibody”, in the series with relapsed/refractory CLL (Phase 1 portion (n=13)), the “Grade 3 IRRs” value is recorded as 15% and the “patients who experienced IRRs” value is listed as “all patients”. In addition, in the series on relapsed/refractory CLL (Phase 2 portion), the “IRR cases developing symptoms of hypotension” value is 60%, the “hypotension cases that were Grade 3 reactions” value is reported as 25% and the “patients who developed IRR” value was 95%. In the series on relapsed/refractory CLL (monotherapy, Phase 1, previously treated CLL), the response rate was 62%.
